Columns and labels:
[1] = target: Phosphatidylinositol 4,5-bisphosphate 3-kinase catalytic subunit gamma isoform (Homo sapiens, UniProt P48736); assay: Inhibition of PI3Kgamma (unknown origin)
[2] = target: T1, Phosphatidylinositol 4,5-bisphosphate 3-kinase catalytic subunit delta isoform (Homo sapiens, UniProt O00329); assay: Inhibition of PI3Kdelta (unknown origin)
T1 sequence (O00329 whole entry): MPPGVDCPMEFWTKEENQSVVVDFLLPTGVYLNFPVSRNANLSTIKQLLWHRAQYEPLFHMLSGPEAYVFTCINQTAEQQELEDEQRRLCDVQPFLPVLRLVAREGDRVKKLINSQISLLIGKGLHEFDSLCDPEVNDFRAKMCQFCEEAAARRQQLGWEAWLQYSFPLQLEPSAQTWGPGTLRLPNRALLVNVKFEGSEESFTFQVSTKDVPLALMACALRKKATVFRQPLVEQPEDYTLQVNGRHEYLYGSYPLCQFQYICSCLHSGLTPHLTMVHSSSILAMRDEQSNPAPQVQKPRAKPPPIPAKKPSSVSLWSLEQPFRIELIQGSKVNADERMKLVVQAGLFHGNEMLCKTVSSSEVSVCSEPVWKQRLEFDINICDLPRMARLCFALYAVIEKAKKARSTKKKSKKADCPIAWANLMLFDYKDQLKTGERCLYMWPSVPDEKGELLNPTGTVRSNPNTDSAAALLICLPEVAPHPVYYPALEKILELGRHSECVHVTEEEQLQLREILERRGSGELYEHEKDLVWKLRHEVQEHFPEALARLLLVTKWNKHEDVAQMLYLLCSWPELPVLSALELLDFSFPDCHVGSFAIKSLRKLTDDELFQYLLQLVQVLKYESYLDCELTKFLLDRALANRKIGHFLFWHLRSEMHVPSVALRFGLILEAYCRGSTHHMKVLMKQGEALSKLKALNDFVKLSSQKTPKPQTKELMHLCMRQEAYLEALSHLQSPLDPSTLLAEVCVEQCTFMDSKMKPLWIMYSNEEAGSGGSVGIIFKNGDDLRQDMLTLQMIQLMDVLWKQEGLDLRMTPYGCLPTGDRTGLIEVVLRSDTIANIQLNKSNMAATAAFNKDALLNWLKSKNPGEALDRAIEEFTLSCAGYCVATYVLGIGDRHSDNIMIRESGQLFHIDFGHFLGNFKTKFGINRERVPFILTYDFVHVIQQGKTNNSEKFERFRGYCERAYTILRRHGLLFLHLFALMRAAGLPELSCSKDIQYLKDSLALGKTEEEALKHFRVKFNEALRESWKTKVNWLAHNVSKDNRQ

Histone deacetylase 1 = Histone deacetylase 1 (Homo sapiens, UniProt Q13547); assay: Inhibition of HDAC1 (unknown origin)
Histone deacetylase 1, sequence (Q13547 whole entry): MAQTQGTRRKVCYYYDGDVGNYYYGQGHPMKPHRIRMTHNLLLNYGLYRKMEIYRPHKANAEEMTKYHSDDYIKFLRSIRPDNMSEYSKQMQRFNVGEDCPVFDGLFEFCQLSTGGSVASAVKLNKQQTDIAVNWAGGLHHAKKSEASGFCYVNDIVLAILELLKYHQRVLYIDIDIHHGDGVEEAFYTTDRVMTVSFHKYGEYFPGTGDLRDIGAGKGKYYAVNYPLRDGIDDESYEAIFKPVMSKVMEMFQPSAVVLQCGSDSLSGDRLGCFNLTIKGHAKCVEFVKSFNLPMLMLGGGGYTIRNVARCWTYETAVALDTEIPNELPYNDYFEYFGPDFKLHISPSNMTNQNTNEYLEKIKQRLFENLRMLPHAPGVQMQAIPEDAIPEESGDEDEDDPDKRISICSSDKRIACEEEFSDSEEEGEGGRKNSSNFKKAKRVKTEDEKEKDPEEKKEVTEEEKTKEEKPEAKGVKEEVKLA

Histone deacetylase 11 = target: T2, Histone deacetylase 11 (Homo sapiens, UniProt Q96DB2); assay: Inhibition of HDAC11 (unknown origin)
T2 sequence (Q96DB2 whole entry): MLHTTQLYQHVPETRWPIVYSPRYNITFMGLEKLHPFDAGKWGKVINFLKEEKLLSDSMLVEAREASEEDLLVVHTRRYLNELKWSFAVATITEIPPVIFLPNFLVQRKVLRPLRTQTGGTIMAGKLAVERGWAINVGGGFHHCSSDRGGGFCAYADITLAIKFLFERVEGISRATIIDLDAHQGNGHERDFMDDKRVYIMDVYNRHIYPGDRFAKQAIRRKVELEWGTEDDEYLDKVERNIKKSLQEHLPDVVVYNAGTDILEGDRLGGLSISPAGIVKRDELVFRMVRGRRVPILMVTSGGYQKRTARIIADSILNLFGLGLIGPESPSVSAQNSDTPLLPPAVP

Histone deacetylase 8 = target: T3, Histone deacetylase 8 (Homo sapiens, UniProt Q9BY41); assay: Inhibition of HDAC8 (unknown origin)
T3 sequence (Q9BY41 whole entry): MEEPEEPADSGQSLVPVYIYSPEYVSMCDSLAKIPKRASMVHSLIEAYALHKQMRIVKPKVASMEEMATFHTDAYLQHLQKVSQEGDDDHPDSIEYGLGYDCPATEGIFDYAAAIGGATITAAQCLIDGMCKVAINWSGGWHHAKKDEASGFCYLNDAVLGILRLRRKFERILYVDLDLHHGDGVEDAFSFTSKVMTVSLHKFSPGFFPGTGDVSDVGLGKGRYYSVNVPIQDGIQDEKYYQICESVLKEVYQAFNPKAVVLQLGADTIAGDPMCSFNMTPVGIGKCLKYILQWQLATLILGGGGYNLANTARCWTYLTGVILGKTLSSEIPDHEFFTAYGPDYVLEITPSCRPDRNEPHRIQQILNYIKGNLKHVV

[3] = target: Phosphatidylinositol 4,5-bisphosphate 3-kinase catalytic subunit beta isoform (Homo sapiens, UniProt P42338); assay: Inhibition of PI3Kbeta (unknown origin)
Phosphatidylinositol 4,5-bisphosphate 3-kinase catalytic subunit beta isoform, sequence (P42338 whole entry, canonical isoform): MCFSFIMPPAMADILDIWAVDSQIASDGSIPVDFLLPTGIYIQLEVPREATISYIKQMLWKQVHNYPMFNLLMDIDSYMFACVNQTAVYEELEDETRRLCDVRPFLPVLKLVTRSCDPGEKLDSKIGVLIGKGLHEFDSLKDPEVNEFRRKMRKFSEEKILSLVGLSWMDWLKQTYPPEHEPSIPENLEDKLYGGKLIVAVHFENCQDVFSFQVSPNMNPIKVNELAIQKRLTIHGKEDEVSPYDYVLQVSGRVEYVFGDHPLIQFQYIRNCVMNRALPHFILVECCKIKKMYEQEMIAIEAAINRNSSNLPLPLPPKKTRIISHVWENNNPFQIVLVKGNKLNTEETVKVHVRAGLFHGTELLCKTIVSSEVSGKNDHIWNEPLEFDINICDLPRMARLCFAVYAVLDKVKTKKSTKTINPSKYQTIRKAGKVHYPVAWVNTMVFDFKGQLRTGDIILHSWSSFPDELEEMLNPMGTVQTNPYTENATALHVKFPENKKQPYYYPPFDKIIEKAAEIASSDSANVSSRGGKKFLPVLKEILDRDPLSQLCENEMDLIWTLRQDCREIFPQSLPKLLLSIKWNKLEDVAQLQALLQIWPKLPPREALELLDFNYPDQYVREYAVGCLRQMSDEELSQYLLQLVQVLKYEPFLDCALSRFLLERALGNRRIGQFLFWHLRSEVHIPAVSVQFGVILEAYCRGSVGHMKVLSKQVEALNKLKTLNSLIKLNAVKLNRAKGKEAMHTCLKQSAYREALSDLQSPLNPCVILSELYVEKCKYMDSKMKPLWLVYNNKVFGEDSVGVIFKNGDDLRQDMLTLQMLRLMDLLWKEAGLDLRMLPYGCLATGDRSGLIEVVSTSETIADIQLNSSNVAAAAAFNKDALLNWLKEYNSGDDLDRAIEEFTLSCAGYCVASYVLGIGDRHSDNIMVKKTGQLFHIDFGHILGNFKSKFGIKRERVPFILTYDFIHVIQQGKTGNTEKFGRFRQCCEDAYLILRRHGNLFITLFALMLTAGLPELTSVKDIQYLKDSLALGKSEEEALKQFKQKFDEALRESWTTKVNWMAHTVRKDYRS

L-363 = assay: Antiproliferative activity against human L-363 cells
MCF7 = assay: Antiproliferative activity against human MCF7 cells
T47D = assay: Antiproliferative activity against human T47D cells

Phosphatidylinositol 4,5-bisphosphate 3-kinase catalytic subunit gamma isoform, sequence (P48736 whole entry, canonical isoform): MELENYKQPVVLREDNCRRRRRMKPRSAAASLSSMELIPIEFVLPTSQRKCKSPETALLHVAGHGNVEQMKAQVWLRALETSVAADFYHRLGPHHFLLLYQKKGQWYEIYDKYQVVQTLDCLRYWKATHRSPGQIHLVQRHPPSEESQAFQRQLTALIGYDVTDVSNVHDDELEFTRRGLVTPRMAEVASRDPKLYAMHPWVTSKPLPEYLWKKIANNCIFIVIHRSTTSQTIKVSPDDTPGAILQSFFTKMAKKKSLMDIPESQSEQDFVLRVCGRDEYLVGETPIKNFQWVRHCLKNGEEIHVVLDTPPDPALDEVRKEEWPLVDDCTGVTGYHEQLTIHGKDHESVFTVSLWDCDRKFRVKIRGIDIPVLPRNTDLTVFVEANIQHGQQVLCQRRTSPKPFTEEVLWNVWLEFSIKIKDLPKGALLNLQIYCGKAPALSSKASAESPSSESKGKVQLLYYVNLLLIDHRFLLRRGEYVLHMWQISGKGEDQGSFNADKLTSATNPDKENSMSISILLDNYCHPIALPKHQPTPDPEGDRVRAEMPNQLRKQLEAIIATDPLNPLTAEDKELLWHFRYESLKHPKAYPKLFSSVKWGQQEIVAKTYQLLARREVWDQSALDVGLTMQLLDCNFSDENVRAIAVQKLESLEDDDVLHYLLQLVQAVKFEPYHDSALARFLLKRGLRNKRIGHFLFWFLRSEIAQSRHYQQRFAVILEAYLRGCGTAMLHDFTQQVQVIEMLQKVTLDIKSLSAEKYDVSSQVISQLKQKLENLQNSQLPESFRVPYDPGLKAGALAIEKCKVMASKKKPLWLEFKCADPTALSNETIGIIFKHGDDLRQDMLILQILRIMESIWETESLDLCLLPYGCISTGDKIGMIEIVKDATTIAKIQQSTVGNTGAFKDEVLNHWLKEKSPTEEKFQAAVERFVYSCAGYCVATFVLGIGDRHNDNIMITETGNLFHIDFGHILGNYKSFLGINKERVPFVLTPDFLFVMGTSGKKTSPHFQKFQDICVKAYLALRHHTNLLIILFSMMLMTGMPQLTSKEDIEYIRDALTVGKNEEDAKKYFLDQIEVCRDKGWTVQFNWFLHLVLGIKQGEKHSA

IC50 [1] [nM]	IC50 [2] [nM]	IC50 (Histone deacetylase 1) [nM]	IC50 (Histone deacetylase 11) [nM]	IC50 (Histone deacetylase 8) [nM]	IC50 [3] [nM]	IC50 (MCF7) [nM]	IC50 (T47D) [nM]	SMILES	IC50 (L-363) [nM]
318	214	471	> 2000	> 2000	> 1000			Cc1nc(NC(=O)N2C[C@H](NC(=O)c3ccc(C(=O)NO)cn3)C[C@H]2C(N)=O)sc1-c1ccnc(C(C)(C)C(F)(F)F)c1	
285	42	> 2000	586	> 2000	880			Cc1nc(NC(=O)N2C[C@H](NS(=O)(=O)Cc3ccc(C(=O)NO)cc3)C[C@H]2C(N)=O)sc1-c1ccnc(C(C)(C)C(F)(F)F)c1	
						250	2300	Cc1nc(NC(=O)N2CCC[C@H]2C(N)=O)sc1-c1ccnc(C(C)(C)C(F)(F)F)c1 [ALPELISIB]	260
						3560		O=C(CCCCCCC(=O)Nc1ccccc1)NO [VORINOSTAT]	
